# Measured values from US20250115595A1, “INHIBITORS OF HYPOXIA-INDUCIBLE FACTORS” (The Johns Hopkins University, priority 2021, published 2025).
# What was measured:
# [1] = test system: HIF-regulated vasoactive mediators; experiment: mRNA expression in hypoxic D120 hiPSC-derived retinal organoids; assay type: cell-based, human; conditions: 1% O2, 12 hours
# Procedure: To assess the therapeutic potential of 32-134D for diabetic patients, human induced pluripotent stem cell (hiPSC)-derived 3-dimensional (3D) retinal organoids were treated with 32-134D. It has been previously reported that hiPSC-derived 3D retinal organoids cultured under hypoxic conditions (1% O2) behave similar to ischemic human retinal tissue with increased accumulation of both HIF-1α and HIF-2α (J. Zhang et al., J Clin Invest 131 (2021)). By 120 days of differentiation (D120), the inner and outer retinal layers are clearly defined (FIGS. 32A and 32B) and contain the precursors of the major retinal cell types, including outer retina photoreceptors (expressing recoverin), few newly differentiating bipolar cell precursors (lacking expression of recoverin and Pax6), amacrine cells (expressing high levels of Pax6), as well as Müller cells (expressing CRALBP; FIGS. 32C and 32D). […]
# Reverse transcription and quantitative real-time PCR: Total RNA was isolated from cultured cells or retinas with PureLink™ RNA Mini Kit (Invitrogen #12183025), and cDNA was prepared with MuLV Reverse Transcriptase (Applied Biosystems). Quantitative real-time PCR was performed with Power SYBR Green PCR Master Mix (Applied Biosystems) and MyiQ Real-Time PCR Detection System (Bio-Rad). […]
# HIF-1α and HIF-2α = experiment: HIF accumulation in hypoxic HUVECs; assay type: cell-based, human; conditions: 10 μM, 4 hours
# Excerpt: Vascular endothelial cells also secrete angiogenic mediators that contribute to the progression of diabetic eye disease (Y. Qin et al., Sci Adv 8, eabm1896 (2022)). Exposure of human umbilical vein endothelial cells (HUVECs) to hypoxia induced HIF-1α and HIF-2α protein accumulation, which was inhibited by 32-134D (FIG. 30). […] Of note, ANGPT2 and VE-PTP, two emerging targets for the treatment of diabetic eye disease, are both expressed specifically by vascular cells (G. Fachinger, et al., Oncogene 18, 5948-5953 (1999); P. C. Maisonpierre et al., Science 277, 55-60 (1997)).
# Cells culture and reagents: MIO-M1 cells were a gift from Dr. Astrid Limb (University College London, Institute of Ophthalmology, London, United Kingdom). MIO-M1 and HUVEC cells were cultured in DMEM with 10% (vol/vol) FBS (Quality Biological) and 1% penicillin/streptomycin (Cellgro). Hypoxia chambers were used to expose cells. Evans Blue (E2129) was purchased from Sigma-Aldrich.
# Immunoblot assays and ELISAs: Cell, neurosensory retina, and D120 retinal organoid lysates were subjected to 4-15% gradient SDS/PAGE (Invitrogen). Immunoblot assays were performed as previously described (X. Xin et al., 2013, Proc Natl Acad Sci USA 110, E3425-3434).
smiles,measurement,setting,value
"Brc1ccc2c(-c3csc(-c4c[nH]c5c(Br)cccc45)n3)c[nH]c2c1 [Compound 32-134D, 4-(6-bromo-1H-indol-3-yl)-2-(7-bromo-1H-indol-3-yl)thiazole]","expression of HIF-regulated vasoactive mediators (Vegf, Angpt14 mRNA)",[1],effectively prevented
same,hypoxia-induced HIF-1α and HIF-2α protein accumulation,HIF-1α and HIF-2α,inhibited
